Test system: LG0703-F948-PDC complex spheroid viability
Experiment: Anticancer human tumor LG0703-F948-PDC patient-derived lung adenocarcinoma cell line growth inhibition [RAS]
Conditions: for IC50: curve of first compound; for viability, T/C: stronger effect = lower value
Method in brief: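 Tumour cells grown as complex spheroids with HUVEC endothelial cells and mesenchymal stem cells, treated with RAS pathway inhibitor combinations. Each agent spans half-log steps from near clinical Cmax, or 10 microM where Cmax is unknown.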
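Note: spheroids exposed to agents for 7 days.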
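Throughout, for viability, T/C: 100% = DMSO vehicle wells.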

With `CC(=O)OC12COC1CC(O)C1(C)C(=O)C(O)C3=C(C)C(OC(=O)C(O)C(NC(=O)OC(C)(C)C)c4ccccc4)CC(O)(C(OC(=O)c4ccccc4)C21)C3(C)C` (stereo unspecified) + C#Cc1c(F)ccc2cc(O)cc(-c3ncc4c(N5CC6CCC(C5)N6)nc(OCC56CCCN5CC(F)C6)nc4c3F)c12 the IC50 (second compound 0.0316 µM) was less than 31.6 nM, the IC50 (second compound 0.1 µM) was less than 31.6 nM and the IC50 (second compound 0.316 µM) was less than 31.6 nM. For the same compound, the IC50 (second compound 1 µM) was less than 31.6 nM, the IC50 (second compound 3.16 µM) was less than 31.6 nM and the IC50 (second compound 10 µM) was less than 31.6 nM. It also gave a viability, T/C (second compound 0.0316 µM, first compound 0.0316 µM) of 28.1%, a viability, T/C (second compound 0.0316 µM, first compound 0.1 µM) of 22.9% and a viability, T/C (second compound 0.0316 µM, first compound 0.316 µM) of 23.7%. The viability, T/C (second compound 0.0316 µM, first compound 1 µM) was 27.4%, the viability, T/C (second compound 0.0316 µM, first compound 3.16 µM) was 33.1% and the viability, T/C (second compound 0.0316 µM, first compound 10 µM) was 27.8%. For the same compound, the viability, T/C (second compound 0.1 µM, first compound 0.0316 µM) was 23.5%, the viability, T/C (second compound 0.1 µM, first compound 0.1 µM) was 27.3% and the viability, T/C (second compound 0.1 µM, first compound 0.316 µM) was 24.9%. For the same compound, the viability, T/C (second compound 0.1 µM, first compound 1 µM) was 32%, the viability, T/C (second compound 0.1 µM, first compound 3.16 µM) was 32.9% and the viability, T/C (second compound 0.1 µM, first compound 10 µM) was 25.2%. It also gave a viability, T/C (second compound 0.316 µM, first compound 0.0316 µM) of 27.2%, a viability, T/C (second compound 0.316 µM, first compound 0.1 µM) of 22.6% and a viability, T/C (second compound 0.316 µM, first compound 0.316 µM) of 27.7%. The viability, T/C (second compound 0.316 µM, first compound 1 µM) was 26.2%, the viability, T/C (second compound 0.316 µM, first compound 3.16 µM) was 24.8% and the viability, T/C (second compound 0.316 µM, first compound 10 µM) was 22.9%. The viability, T/C (second compound 1 µM, first compound 0.0316 µM) was 25.5%, the viability, T/C (second compound 1 µM, first compound 0.1 µM) was 26.4% and the viability, T/C (second compound 1 µM, first compound 0.316 µM) was 24.6%. For the same compound, the viability, T/C (second compound 1 µM, first compound 1 µM) was 26.4%, the viability, T/C (second compound 1 µM, first compound 3.16 µM) was 22.7% and the viability, T/C (second compound 1 µM, first compound 10 µM) was 20.1%. The viability, T/C (second compound 3.16 µM, first compound 0.0316 µM) was 23.5%, the viability, T/C (second compound 3.16 µM, first compound 0.1 µM) was 22.8% and the viability, T/C (second compound 3.16 µM, first compound 0.316 µM) was 23%. For the same compound, the viability, T/C (second compound 3.16 µM, first compound 1 µM) was 18.9%, the viability, T/C (second compound 3.16 µM, first compound 3.16 µM) was 16.3% and the viability, T/C (second compound 3.16 µM, first compound 10 µM) was 16.1%. It also gave a viability, T/C (second compound 10 µM, first compound 0.0316 µM) of 17.2%, a viability, T/C (second compound 10 µM, first compound 0.1 µM) of 18.5% and a viability, T/C (second compound 10 µM, first compound 0.316 µM) of 16%. For the same compound, the viability, T/C (second compound 10 µM, first compound 1 µM) was 11.8%, the viability, T/C (second compound 10 µM, first compound 3.16 µM) was 8.84% and the viability, T/C (second compound 10 µM, first compound 10 µM) was 5.54%.
`CCc1c2c(nc3ccc(O)cc13)-c1cc3c(c(=O)n1C2)COC(=O)[C@]3(O)CC` + CCn1c(-c2cc(N3CCN(C)CC3)cnc2C(C)OC)c2c3cc(ccc31)-c1csc(n1)CC(NC(=O)C1CC1C)C(=O)N1CCCC(N1)C(=O)OCC(C)(C)C2 showed an IC50 (second compound 0.000949 µM) of 68.2 nM, an IC50 (second compound 0.003 µM) of less than 0.949 nM and an IC50 (second compound 0.00949 µM) of less than 0.949 nM. It also gave an IC50 (second compound 0.03 µM) of less than 0.949 nM, an IC50 (second compound 0.0949 µM) of less than 0.949 nM and an IC50 (second compound 0.3 µM) of less than 0.949 nM. The viability, T/C (second compound 0.000949 µM, first compound 0.000949 µM) was 74.3%, the viability, T/C (second compound 0.000949 µM, first compound 0.003 µM) was 84.5% and the viability, T/C (second compound 0.000949 µM, first compound 0.00949 µM) was 54.4%. For the same compound, the viability, T/C (second compound 0.000949 µM, first compound 0.03 µM) was 62%, the viability, T/C (second compound 0.000949 µM, first compound 0.0949 µM) was 49.7% and the viability, T/C (second compound 0.000949 µM, first compound 0.3 µM) was 24.4%. It also gave a viability, T/C (second compound 0.003 µM, first compound 0.000949 µM) of 46.3%, a viability, T/C (second compound 0.003 µM, first compound 0.003 µM) of 44.4% and a viability, T/C (second compound 0.003 µM, first compound 0.00949 µM) of 46%. It also gave a viability, T/C (second compound 0.003 µM, first compound 0.03 µM) of 40.1%, a viability, T/C (second compound 0.003 µM, first compound 0.0949 µM) of 31.9% and a viability, T/C (second compound 0.003 µM, first compound 0.3 µM) of 20%. For the same compound, the viability, T/C (second compound 0.00949 µM, first compound 0.000949 µM) was 25.6%, the viability, T/C (second compound 0.00949 µM, first compound 0.003 µM) was 19% and the viability, T/C (second compound 0.00949 µM, first compound 0.00949 µM) was 19.7%. It also gave a viability, T/C (second compound 0.00949 µM, first compound 0.03 µM) of 17%, a viability, T/C (second compound 0.00949 µM, first compound 0.0949 µM) of 17.2% and a viability, T/C (second compound 0.00949 µM, first compound 0.3 µM) of 11.3%. For the same compound, the viability, T/C (second compound 0.03 µM, first compound 0.000949 µM) was 13.3%, the viability, T/C (second compound 0.03 µM, first compound 0.003 µM) was 17.8% and the viability, T/C (second compound 0.03 µM, first compound 0.00949 µM) was 13.5%. The viability, T/C (second compound 0.03 µM, first compound 0.03 µM) was 15.7%, the viability, T/C (second compound 0.03 µM, first compound 0.0949 µM) was 10.4% and the viability, T/C (second compound 0.03 µM, first compound 0.3 µM) was 9.39%. The viability, T/C (second compound 0.0949 µM, first compound 0.000949 µM) was 14.1%, the viability, T/C (second compound 0.0949 µM, first compound 0.003 µM) was 12.5% and the viability, T/C (second compound 0.0949 µM, first compound 0.00949 µM) was 9.68%. The viability, T/C (second compound 0.0949 µM, first compound 0.03 µM) was 9.08%, the viability, T/C (second compound 0.0949 µM, first compound 0.0949 µM) was 12.3% and the viability, T/C (second compound 0.0949 µM, first compound 0.3 µM) was 9.68%. For the same compound, the viability, T/C (second compound 0.3 µM, first compound 0.000949 µM) was 11.7%, the viability, T/C (second compound 0.3 µM, first compound 0.003 µM) was 9.88% and the viability, T/C (second compound 0.3 µM, first compound 0.00949 µM) was 8.36%. It also gave a viability, T/C (second compound 0.3 µM, first compound 0.03 µM) of 8.45%, a viability, T/C (second compound 0.3 µM, first compound 0.0949 µM) of 7.32% and a viability, T/C (second compound 0.3 µM, first compound 0.3 µM) of 4.88%.
`C=CC(=O)N1CCN(c2nc(OCC3CCCN3C)nc3c(F)c(-c4nc(N)cc(C)c4C(F)(F)F)c(Cl)cc23)C(C)C1` (stereo unspecified) + CCn1c(-c2cc(N3CCN(C)CC3)cnc2C(C)OC)c2c3cc(ccc31)-c1csc(n1)CC(NC(=O)C1CC1C)C(=O)N1CCCC(N1)C(=O)OCC(C)(C)C2 gave an IC50 (second compound 0.000949 µM) greater than 1000 nM, an IC50 (second compound 0.003 µM) of less than 3.16 nM and an IC50 (second compound 0.00949 µM) of less than 3.16 nM. The IC50 (second compound 0.03 µM) was less than 3.16 nM, the IC50 (second compound 0.0949 µM) was less than 3.16 nM and the IC50 (second compound 0.3 µM) was less than 3.16 nM. The viability, T/C (second compound 0.000949 µM, first compound 0.00316 µM) was 68%, the viability, T/C (second compound 0.000949 µM, first compound 0.01 µM) was 75.1% and the viability, T/C (second compound 0.000949 µM, first compound 0.0316 µM) was 71%. The viability, T/C (second compound 0.000949 µM, first compound 0.1 µM) was 66.5%, the viability, T/C (second compound 0.000949 µM, first compound 0.316 µM) was 69.9% and the viability, T/C (second compound 0.000949 µM, first compound 1 µM) was 62.6%. The viability, T/C (second compound 0.003 µM, first compound 0.00316 µM) was 45.5%, the viability, T/C (second compound 0.003 µM, first compound 0.01 µM) was 40.5% and the viability, T/C (second compound 0.003 µM, first compound 0.0316 µM) was 43.4%. It also gave a viability, T/C (second compound 0.003 µM, first compound 0.1 µM) of 44%, a viability, T/C (second compound 0.003 µM, first compound 0.316 µM) of 47.3% and a viability, T/C (second compound 0.003 µM, first compound 1 µM) of 49%. It also gave a viability, T/C (second compound 0.00949 µM, first compound 0.00316 µM) of 24.9%, a viability, T/C (second compound 0.00949 µM, first compound 0.01 µM) of 26.1% and a viability, T/C (second compound 0.00949 µM, first compound 0.0316 µM) of 27.9%. For the same compound, the viability, T/C (second compound 0.00949 µM, first compound 0.1 µM) was 17.7%, the viability, T/C (second compound 0.00949 µM, first compound 0.316 µM) was 25.9% and the viability, T/C (second compound 0.00949 µM, first compound 1 µM) was 25.5%. It also gave a viability, T/C (second compound 0.03 µM, first compound 0.00316 µM) of 13.4%, a viability, T/C (second compound 0.03 µM, first compound 0.01 µM) of 14.6% and a viability, T/C (second compound 0.03 µM, first compound 0.0316 µM) of 16.2%. For the same compound, the viability, T/C (second compound 0.03 µM, first compound 0.1 µM) was 13.1%, the viability, T/C (second compound 0.03 µM, first compound 0.316 µM) was 18.8% and the viability, T/C (second compound 0.03 µM, first compound 1 µM) was 13.9%. The viability, T/C (second compound 0.0949 µM, first compound 0.00316 µM) was 14.2%, the viability, T/C (second compound 0.0949 µM, first compound 0.01 µM) was 16.3% and the viability, T/C (second compound 0.0949 µM, first compound 0.0316 µM) was 11.3%. For the same compound, the viability, T/C (second compound 0.0949 µM, first compound 0.1 µM) was 11%, the viability, T/C (second compound 0.0949 µM, first compound 0.316 µM) was 15.2% and the viability, T/C (second compound 0.0949 µM, first compound 1 µM) was 15.9%. It also gave a viability, T/C (second compound 0.3 µM, first compound 0.00316 µM) of 10.4%, a viability, T/C (second compound 0.3 µM, first compound 0.01 µM) of 8.07% and a viability, T/C (second compound 0.3 µM, first compound 0.0316 µM) of 9.51%. For the same compound, the viability, T/C (second compound 0.3 µM, first compound 0.1 µM) was 11.9%, the viability, T/C (second compound 0.3 µM, first compound 0.316 µM) was 11.5% and the viability, T/C (second compound 0.3 µM, first compound 1 µM) was 10.8%.

Reference: PubChem BioAssay AID2060890 (Molecular Pharmacology Branch, DTP, NCI, 2025)
